{"source": "paper PMC5874699", "about": "“Antimicrobial and Antibiofilm Activity of UP-5, an Ultrashort Antimicrobial Peptide Designed Using Only Arginine and Biphenylalanine” (Pharmaceuticals, 2018)", "key": {"[1]": {"tested_on": "Escherichia coli (ATCC 35218)", "format": "cell-based", "conditions": "ATCC 35218, 24 h", "text": "(§1) All bacterial susceptibility, biofilm, and synergistic assays of peptides, antibiotics, and peptides-antibiotics combinations used bacterial strains obtained from the American Type Tissue Culture Collection (ATCC, Manassas, VA, USA) that states the mechanism of resistance for each strain according to ATCC number. Gram-positive bacteria were represented by five strains, the wild type strain Staphylococcus aureus (ATCC 29213) and methicillin-resistant S. aureus (MRSA) (ATCC 33591) in addition to clinically isolated strains S. aureus (ATCC BAA-41& 43300) and Enterococcus faecalis (ATCC BAA-2316). The Gram-negative bacteria strains were represented by wild type strains of Escherichia coli (ATCC 25922 & 35218) and Pseudomonas aeruginosa (ATCC 27853) as well as the clinically isolated multidrug-resistant strain P. aeruginosa (ATCC BAA-2114). The bacteria were cultured onto Muller Hinton Agar (Scharlab, S.L, Barcelona, Spain). Mueller Hinton Broth (Oxoid Ltd., Basingstoke, UK) was used to prepare all bacterial suspensions and to dissolve the peptides and the antibiotics. The assay was performed in sterile 96-well polypropylene microtiter plates.\n(§2) All bacterial susceptibility assays were conducted according to the microbroth dilution method outlined by the Clinical and Laboratory Standards Institute (CLSI) guidelines.\n(§3) Briefly, pre-sterilized MHB was used as a growth medium for organisms obtained from stock media with glycerol. Bacterial cells were grown overnight in MHB and diluted to 10^6 CFU/mL in the same medium prior to use. For peptide, serial concentrations in the range of 0.5–100 μM were prepared. Then, 50 μL of each peptide concentration and 50 µL of diluted bacterial suspension were added to each well of a 96-well microtiter plate. Peptide solutions were prepared by dissolving the peptide in sterile MHB. Then, the plates were incubated overnight in a humidified atmosphere, and at 37 °C. Bacterial growth was determined by measuring the optical density (OD) at λ = 600 nm using an ELISA plate reader (Epoch, BioTek, Winooski, VT, USA) and the minimum inhibitory concentration (MIC) was determined."}, "[2]": {"tested_on": "Escherichia coli (ATCC 25922)", "format": "cell-based", "conditions": "ATCC 25922, 24 h", "text": "as §1, §2, §3"}, "[3]": {"tested_on": "Pseudomonas aeruginosa (ATCC 27853)", "format": "cell-based", "conditions": "ATCC 27853, 24 h", "text": "as §1, §2, §3"}, "[4]": {"tested_on": "Enterococcus faecalis (ATCC BAA-2316)", "format": "cell-based", "conditions": "ATCC BAA-2316, 24 h", "text": "as §1, §2, §3"}, "[5]": {"tested_on": "P. aeruginosa (ATCC BAA-2114)", "format": "cell-based, Pseudomonas aeruginosa", "conditions": "ATCC BAA-2114, 24 h", "text": "as §1, §2, §3\nAs described in the previous section, the MIC and MBC values of antibiotics employed in this study were determined against subjected bacterial strains via preparing different concentrations of each antibiotic."}, "Vero cells": {"tested_on": "Vero cells", "format": "cell-based", "conditions": "24 h", "method": "Vero cells were seeded at 5 × 10^3 cells per well in flat-bottomed 96-well plates, and the plate was incubated for 18–24 h at 37 °C under 5% CO2 to allow cell attachment on the bottom of the plates. Next day, different concentrations of the peptide were prepared as a gradient using growth medium as the diluent (150, 200, 250, 300, 400, 500, and 600 µM). The plates were incubated for 24 h at 37 °C under 5% CO2. Next, 30 μL (2.5 g/L) MTT solutions were added to all wells and the plates were incubated for 4–6 h. After incubation, the MTT-Peptide solution was removed and a 100 μL of DMSO was added to each well and mixed thoroughly by pipetting to dissolve the Formazan crystals at the bottom of the wells until a clear purple color was achieved. The plates were then placed on an ELx808™ Absorbance Microplate Reader (BioTek, Winooski, VT, USA) and the absorbance was measured at λ = 540 nm."}}, "note": "Square brackets hold non-standard residues; d marks the D form. Peptide text beside a SMILES is read from it. Bip = N[C@@H](Cc1ccc(-c2ccccc2)cc1)C(=O)O"}
{"smiles": "N=C(N)NCCC[C@H](NC(=O)[C@H](Cc1ccc(-c2ccccc2)cc1)NC(=O)[C@H](CCCNC(=N)N)NC(=O)[C@H](Cc1ccc(-c2ccccc2)cc1)NC(=O)[C@@H](N)CCCNC(=N)N)C(=O)O", "note": "[UP-5] (H-R[Bip]R[Bip]R-OH)", "values": [{"measurement": "MBC Value", "setting": "[1]", "value": 60, "unit": "µM"}, {"measurement": "MIC Value", "setting": "[1]", "value": 60, "unit": "µM"}, {"measurement": "MBC Value", "setting": "[2]", "value": 55, "unit": "µM"}, {"measurement": "MIC Value", "setting": "[2]", "value": 55, "unit": "µM"}, {"measurement": "MBC Value", "setting": "[3]", "value": 65, "unit": "µM"}, {"measurement": "MIC Value", "setting": "[3]", "value": 65, "unit": "µM"}, {"measurement": "MBC Value", "setting": "[4]", "value": 70, "unit": "µM"}, {"measurement": "MIC Value", "setting": "[4]", "value": 70, "unit": "µM"}, {"measurement": "MBC Value", "setting": "[5]", "value": 55, "unit": "µM"}, {"measurement": "MIC Value", "setting": "[5]", "value": 55, "unit": "µM"}, {"measurement": "IC50", "setting": "Vero cells", "value": "> 250", "unit": "µM"}]}
